This experiment concerns BDF1 mice, P388 leukemia ip, median survival T/C. The experiment is described as follows: NCI In Vivo Anticancer Drug Screen. Data for tumor model P388 Leukemia (intraperitoneal) in B6D2F1 (BDF1) mice. To be noted: endpoint: median survival time, higher = longer survival. In a few lines: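 Mice carrying the transplantable tumour receive compound or vehicle. Survival is followed in each arm, and the treated measure is divided by the vehicle measure.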

Setting [1] is: dose: 100.0 mg/kg/injection, schedule: Q04DX003 (ip), vehicle: saline with Tween-80.
The mark [2] stands for this setting: dose: 200.0 mg/kg/injection, schedule: Q04DX003 (ip), vehicle: saline with Tween-80.
The mark [3] stands for this setting: dose: 400.0 mg/kg/injection, schedule: Q04DX003 (ip), vehicle: saline with Tween-80.
[4] abbreviates: dose: 100.0 mg/kg/injection, schedule: Q01DX009 (ip), vehicle: saline with Tween-80.
The mark [5] stands for this setting: dose: 200.0 mg/kg/injection, schedule: Q01DX009 (ip), vehicle: saline with Tween-80.
Where [6] appears, read: dose: 400.0 mg/kg/injection, schedule: Q01DX009 (ip), vehicle: saline with Tween-80.
[7] abbreviates: dose: 50.0 mg/kg/injection, schedule: Q01DX005 (ip), vehicle: saline.
Where [8] appears, read: dose: 100.0 mg/kg/injection, schedule: Q01DX005 (ip), vehicle: saline.
The mark [9] stands for this setting: dose: 200.0 mg/kg/injection, schedule: Q01DX005 (ip), vehicle: saline.
Where [10] appears, read: dose: 100.0 mg/kg/injection, schedule: Q01DX009 (ip), vehicle: saline.
[11] abbreviates: dose: 200.0 mg/kg/injection, schedule: Q01DX009 (ip), vehicle: saline.
Setting [12] is: dose: 100.0 mg/kg/injection, schedule: Q04DX003 (ip), vehicle: saline.
The mark [13] stands for this setting: dose: 200.0 mg/kg/injection, schedule: Q04DX003 (ip), vehicle: saline.
The mark [14] stands for this setting: dose: 400.0 mg/kg/injection, schedule: Q04DX003 (ip), vehicle: saline.

Here are results for 20 molecules from PubChem BioAssay AID328 (DTP/NCI, 2004).

Values joined by “and” are separate entries in the source; they are usually repeats but may differ in a detail not shown here. Equal entries are not always repeated. Toxic doses and inconclusive results are not listed.

In the case of `COc1ccc(NC(=O)N(CCCl)N=O)cc1OC`, the T/C was 107 % of control (dose: 0.29 mg/kg/injection, schedule: Q04DX003 (ip), vehicle: saline with Tween-80); 110 % of control (dose: 0.44 mg/kg/injection, schedule: Q04DX003 (ip), vehicle: saline with Tween-80); 122 % of control (dose: 0.66 mg/kg/injection, schedule: Q04DX003 (ip), vehicle: saline with Tween-80); 174 % of control (dose: 0.79 mg/kg/injection, schedule: Q01DX009 (ip), vehicle: saline with Tween-80); 185 % of control (dose: 1.19 mg/kg/injection, schedule: Q01DX009 (ip), vehicle: saline with Tween-80); 186 % of control (dose: 1.78 mg/kg/injection, schedule: Q01DX009 (ip), vehicle: saline with Tween-80). The T/C is 172 % of control (dose: 2.2 mg/kg/injection, schedule: Q04DX003 (ip), vehicle: saline with Tween-80); 161 % of control and 194 % of control (dose: 2.66 mg/kg/injection, schedule: Q01DX009 (ip), vehicle: saline with Tween-80); 190 % of control (dose: 3.3 mg/kg/injection, schedule: Q04DX003 (ip), vehicle: saline with Tween-80); 169 % of control (dose: 4.0 mg/kg/injection, schedule: Q01DX009 (ip), vehicle: saline with Tween-80); 186 % of control (dose: 5.0 mg/kg/injection, schedule: Q04DX003 (ip), vehicle: saline with Tween-80); 218 % of control (dose: 5.5 mg/kg/injection, schedule: Q04DX003 (ip), vehicle: saline with Tween-80). Besides, the T/C by setting is: (dose: 6.0 mg/kg/injection, schedule: Q01DX009 (ip), vehicle: saline with Tween-80) 169 % of control; (dose: 7.5 mg/kg/injection, schedule: Q04DX003 (ip), vehicle: saline with Tween-80) 209 % of control; (dose: 8.3 mg/kg/injection, schedule: Q04DX003 (ip), vehicle: saline with Tween-80) 209 % of control; (dose: 9.0 mg/kg/injection, schedule: Q01DX009 (ip), vehicle: saline with Tween-80) 260 % of control; (dose: 12.5 mg/kg/injection, schedule: Q04DX003 (ip), vehicle: saline with Tween-80) 236 % of control; (dose: 18.7 mg/kg/injection, schedule: Q04DX003 (ip), vehicle: saline with Tween-80) 281 % of control.

`O=C(O)c1cc(Br)ccc1OCc1ccc(Cl)cc1`: the T/C was 106 % of control under setting [1], 99 % of control under setting [2] and 110 % of control under setting [3].

`O=C(/C=C/c1ccc(F)cc1)c1ccc(Cl)cc1`: the T/C reads like this: under setting [4], 90 % of control; under setting [5], 90 % of control; under setting [6], 100 % of control.

With `CC(C)(C)P(O)(=S)c1ccccc1` (stereo unspecified) (tested in a mixture with another compound), the T/C is, setting by setting: under setting [7], 94 % of control; under setting [8], 93 % of control; under setting [9], 100 % of control.

Consider `N#CSCc1ccc(Cl)c(CSC#N)c1`, for which the T/C is, setting by setting: (dose: 8.0 mg/kg/injection, schedule: Q01DX009 (ip), vehicle: Klucel (hydroxypropylcellulose) (HPC)) 110 % of control; (dose: 12.0 mg/kg/injection, schedule: Q01DX009 (ip), vehicle: Klucel (hydroxypropylcellulose) (HPC)) 117 % of control; (dose: 12.5 mg/kg/injection, schedule: Q01DX009 (ip), vehicle: Klucel (hydroxypropylcellulose) (HPC)) 160 % of control; (dose: 16.5 mg/kg/injection, schedule: Q04DX003 (ip), vehicle: Klucel (hydroxypropylcellulose) (HPC)) 115 % of control; (dose: 25.0 mg/kg/injection, schedule: Q04DX003 (ip), vehicle: Klucel (hydroxypropylcellulose) (HPC)) 115 % of control; (dose: 37.0 mg/kg/injection, schedule: Q04DX003 (ip), vehicle: Klucel (hydroxypropylcellulose) (HPC)) 123 % of control.

Take `COC(=N)CCCCCC(=N)OC`: the T/C under setting [7] was 92 % of control, the T/C under setting [8] is 97 % of control and the T/C under setting [9] was 87 % of control.

Turning to `CCOC(=O)CCCc1ccc(N=NN(C)C)cc1`, where the note is “dose: 150.0 mg/kg/injection, schedule: Q04DX003 (ip), vehicle: saline”, the T/C is 95 % of control.

As for `CC1(C)CCCC(C(Cc2ccc3ccccc3n2)c2ccccc2)C1=O` (stereo unspecified), the T/C runs as follows: (dose: 100.0 mg/kg/injection, schedule: Q01DX001 (ip), vehicle: saline with Tween-80) 98 % of control; (dose: 200.0 mg/kg/injection, schedule: Q01DX001 (ip), vehicle: saline with Tween-80) 96 % of control; (dose: 400.0 mg/kg/injection, schedule: Q01DX001 (ip), vehicle: saline with Tween-80) 88 % of control.

For `CN(c1ccccc1)c1c2c(oc(=O)c1Cl)-c1ccccc1SC2`, the T/C (dose: 1.56 mg/kg/injection, schedule: Q01DX009 (ip), vehicle: saline with Tween-80) is 101 % of control; the T/C (dose: 3.13 mg/kg/injection, schedule: Q01DX009 (ip), vehicle: saline with Tween-80) is 97 % of control; the T/C (dose: 6.25 mg/kg/injection, schedule: Q01DX009 (ip), vehicle: saline with Tween-80) was 91 % of control.

Take `OCCN1CCN(CCCN2c3ccccc3Sc3ccc(C(F)(F)F)cc32)CC1`: the T/C was 86 % of control (dose: 0.31 mg/kg/injection, schedule: Q01DX009 (ip), vehicle: saline); 90 % of control (dose: 0.62 mg/kg/injection, schedule: Q01DX009 (ip), vehicle: saline); 86 % of control (dose: 0.82 mg/kg/injection, schedule: Q01DX009 (ip), vehicle: saline); 113 % of control (dose: 1.25 mg/kg/injection, schedule: Q01DX009 (ip), vehicle: saline); 105 % of control (dose: 12.5 mg/kg/injection, schedule: Q04DX003 (ip), vehicle: saline).

In the case of `O=C(/C=C/c1ccc(O)cc1)c1ccccc1`, the T/C was 118 % of control under setting [1], 168 % of control under setting [2] and 113 % of control under setting [3].

For the molecule `COC(=O)C(NC(=O)OCc1ccccc1)C(=O)OC`, the T/C runs as follows: under setting [4], 104 % of control; under setting [1], 104 % of control; under setting [5], 95 % of control; under setting [2], 109 % of control; under setting [6], 95 % of control; under setting [3], 100 % of control.

For the molecule `CC1=CC(=O)C2=C(C)CCC3C(C)C(=O)OC3C12` (stereo unspecified), the T/C by setting is: under setting [1], 100 % of control; under setting [2], 111 % of control; under setting [3], 116 % of control.

Turning to `CCOC(=O)c1cc(-c2ccccc2)[nH]c1-c1ccccc1`, the T/C (dose: 50.0 mg/kg/injection, schedule: Q01DX009 (ip), vehicle: saline) was 96 % of control; the T/C under setting [10] is 100 % of control; the T/C under setting [11] was 98 % of control.

As to `Cc1nc(N)[nH]c(=O)c1CCCNc1cccc(C(F)(F)F)c1`, the T/C runs as follows: (dose: 100.0 mg/kg/injection, schedule: Q01DX001 (ip), vehicle: Klucel (hydroxypropylcellulose) (HPC)) 100 % of control; (dose: 200.0 mg/kg/injection, schedule: Q01DX001 (ip), vehicle: Klucel (hydroxypropylcellulose) (HPC)) 104 % of control; (dose: 400.0 mg/kg/injection, schedule: Q01DX001 (ip), vehicle: Klucel (hydroxypropylcellulose) (HPC)) 104 % of control.

Turning to `CN(C)N=Nc1ccccc1`, the T/C reads like this: (dose: 31.25 mg/kg/injection, schedule: Q01DX009 (ip), vehicle: Klucel (hydroxypropylcellulose) (HPC)) 103 % of control; (dose: 82.0 mg/kg/injection, schedule: Q04DX003 (ip), vehicle: Klucel (hydroxypropylcellulose) (HPC)) 110 % of control; (dose: 125.0 mg/kg/injection, schedule: Q04DX003 (ip), vehicle: saline) 90 % of control.

In the case of `O=C1CCCCCCC1Cc1cc(O)c(CC2CCCCCCC2=O)cc1O` (stereo unspecified), the T/C reads like this: (dose: 50.0 mg/kg/injection, schedule: Q01DX009 (ip), vehicle: saline with Tween-80) 90 % of control; under setting [4], 91 % of control; under setting [5], 86 % of control.

`CCCOP(=O)(CCl)OCCC`: the T/C is, setting by setting: under setting [12], 95 % of control; under setting [13], 100 % of control; under setting [14], 100 % of control.

With `CCN(CC)C(=O)Cn1cc(F)c(N)nc1=O`, the T/C under setting [10] was 95 % of control; the T/C under setting [12] was 110 % of control; the T/C under setting [11] is 90 % of control; the T/C under setting [13] is 100 % of control; the T/C under setting [14] was 100 % of control.

In the case of `O=[N+]([O-])c1cc2no[n+]([O-])c2cc1N1CCOCC1`, under “dose: 30.0 mg/kg/injection, schedule: Q01DX009 (ip), vehicle: saline with Tween-80”, the T/C is 108 % of control.
